Numbers after ± are expanded uncertainties.
Assay: xn = mol fraction of the nth substance listed
Conditions: 298.15 K, Liquid

CCCCCCCl [1-chlorohexane] + CN(C)C=O
mass density [kg/m3]
Conditions | x2 = 0.097 | x2 = 0.2019 | x2 = 0.2707 | x2 = 0.4007 | x2 = 0.5017 | x2 = 0.6155 | x2 = 0.6988 | x2 = 0.7993 | x2 = 0.9018
100 kPa | 876.9 ± 0.6 | 881.2 ± 0.6 | 884.4 ± 0.6 | 891.3 ± 0.6 | 897.4 ± 0.6 | 905.4 ± 0.6 | 912.7 ± 0.6 | 921.8 ± 0.5 | 932.6 ± 0.5
2000 kPa | 878.5 ± 0.7 | 882.8 ± 0.7 | 885.9 ± 0.7 | 892.8 ± 0.6 | 898.8 ± 0.6 | 906.9 ± 0.6 | 914 ± 0.6 | 923.1 ± 0.6 | 933.8 ± 0.5
4000 kPa | 880.2 ± 0.7 | 884.4 ± 0.7 | 887.5 ± 0.7 | 894.3 ± 0.7 | 900.3 ± 0.7 | 908.4 ± 0.6 | 915.5 ± 0.6 | 924.4 ± 0.6 | 935.1 ± 0.6
6000 kPa | 881.8 ± 0.8 | 886 ± 0.8 | 889.1 ± 0.8 | 895.8 ± 0.7 | 901.8 ± 0.7 | 909.8 ± 0.7 | 916.8 ± 0.7 | 925.7 ± 0.6 | 936.4 ± 0.6
8000 kPa | 883.4 ± 0.8 | 887.6 ± 0.8 | 890.7 ± 0.8 | 897.3 ± 0.8 | 903.3 ± 0.8 | 911.2 ± 0.7 | 918.2 ± 0.7 | 927 ± 0.7 | 937.6 ± 0.6
10000 kPa | 885.1 ± 0.9 | 889.3 ± 0.9 | 892.3 ± 0.8 | 898.8 ± 0.8 | 904.8 ± 0.8 | 912.7 ± 0.8 | 919.6 ± 0.7 | 928.4 ± 0.7 | 938.9 ± 0.6
11900 kPa | – | – | – | – | – | 914 ± 0.8 | – | – | –
12000 kPa | 886.7 ± 0.9 | 890.8 ± 0.9 | 893.8 ± 0.9 | 900 ± 0.9 | 906.3 ± 0.8 | – | 920.9 ± 0.8 | 929.7 ± 0.7 | 940.1 ± 0.7
13900 kPa | – | – | – | – | – | – | – | 930.9 ± 0.7 | –
14000 kPa | 888.2 ± 1 | 892.3 ± 0.9 | 895.2 ± 0.9 | 901.8 ± 0.9 | 907.6 ± 0.9 | 915.4 ± 0.8 | 922.3 ± 0.8 | – | 941.3 ± 0.7
16000 kPa | 889.7 ± 1 | 893.8 ± 1 | 896.7 ± 1 | 903.2 ± 0.9 | 909.1 ± 0.9 | 916.8 ± 0.9 | 923 ± 0.8 | 932.1 ± 0.8 | 942.5 ± 0.7
17900 kPa | – | – | – | – | – | – | – | 933.3 ± 0.8 | –
18000 kPa | 891.2 ± 1.1 | 895.3 ± 1 | 898.1 ± 1 | 904.6 ± 1 | 910.4 ± 0.9 | 918.1 ± 0.9 | 924.9 ± 0.8 | – | 943.6 ± 0.7
20000 kPa | 892.8 ± 1.1 | 896.6 ± 1.1 | 899.6 ± 1 | 906 ± 1 | 911.8 ± 1 | 919.5 ± 0.9 | 926.2 ± 0.9 | 934.6 ± 0.8 | 944.9 ± 0.7

CCCCCCCCCl [1-chlorooctane] + CC(=O)N(C)C
mass density [kg/m3]
Conditions | x2 = 0.0963 | x2 = 0.2006 | x2 = 0.2938 | x2 = 0.4059 | x2 = 0.5022 | x2 = 0.602 | x2 = 0.7005 | x2 = 0.8075 | x2 = 0.901
100 kPa | 872 ± 1 | 875.8 ± 1 | 879.6 ± 0.9 | 884.87 ± 0.85 | 890.2 ± 0.8 | 896.7 ± 0.7 | 904.1 ± 0.7 | 913.7 ± 0.6 | 923.6 ± 0.6
2000 kPa | 873.5 ± 1.1 | 877.2 ± 1 | 881.1 ± 1 | 886.2 ± 0.9 | 891.5 ± 0.8 | 898.1 ± 0.8 | 905.4 ± 0.7 | 914.9 ± 0.7 | 924.8 ± 0.6
4000 kPa | 875 ± 1.2 | 878.7 ± 1.1 | 882.5 ± 1 | 887.6 ± 1 | 892.9 ± 0.9 | 899.4 ± 0.8 | 906.8 ± 0.8 | 916.3 ± 0.7 | 926.1 ± 0.6
6000 kPa | 876.5 ± 1.2 | 880.2 ± 1.1 | 884 ± 1.1 | 889 ± 1 | 894.3 ± 0.9 | 900.8 ± 0.9 | 908.1 ± 0.8 | 917.5 ± 0.7 | 927.3 ± 0.7
8000 kPa | 877.9 ± 1.3 | 881.6 ± 1.2 | 885.5 ± 1.1 | 890.4 ± 1 | 895.8 ± 1 | 902.2 ± 0.9 | 909.4 ± 0.8 | 918.8 ± 0.8 | 928.5 ± 0.7
10000 kPa | 879.5 ± 1.3 | 883.1 ± 1.2 | 887 ± 1.2 | 892 ± 1.1 | 897.3 ± 1 | 903.6 ± 1 | 910.8 ± 0.9 | 920 ± 0.8 | 929.8 ± 0.7
12000 kPa | 880.9 ± 1.4 | 884.5 ± 1.3 | 888.3 ± 1.2 | 893.3 ± 1.1 | 898.5 ± 1.1 | 904.9 ± 1 | 912.1 ± 0.9 | 921.3 ± 0.8 | 931 ± 0.7
14000 kPa | 882.3 ± 1.4 | 885.9 ± 1.3 | 889.7 ± 1.3 | 894.6 ± 1.2 | 899.9 ± 1.1 | 906.1 ± 1 | 913.4 ± 1 | 922.4 ± 0.9 | 932.2 ± 0.8
15900 kPa | – | – | – | – | – | 907.4 ± 1.1 | – | – | –
16000 kPa | 883.7 ± 1.5 | 887.3 ± 1.4 | 891.1 ± 1.3 | 896 ± 1.2 | 901.1 ± 1.1 | – | 914.6 ± 1 | 923.7 ± 0.9 | 933.3 ± 0.8
18000 kPa | 885 ± 1.5 | 888.6 ± 1.4 | 892.4 ± 1.4 | 897.3 ± 1.3 | 902.4 ± 1.2 | 908.7 ± 1.1 | 915.8 ± 1 | 924.9 ± 0.9 | 934.4 ± 0.8
20000 kPa | 886.5 ± 1.6 | 890.1 ± 1.5 | 893.9 ± 1.4 | 898.5 ± 1.3 | 903.8 ± 1.2 | 910 ± 1.1 | 917.1 ± 1 | 926.1 ± 0.9 | 935.7 ± 0.8

CCCCCCCCCl [1-chlorooctane] + CN(C)C=O
mass density [kg/m3]
Conditions | x2 = 0.1042 | x2 = 0.2009 | x2 = 0.2669 | x2 = 0.4023 | x2 = 0.4992 | x2 = 0.6035 | x2 = 0.6982 | x2 = 0.8002 | x2 = 0.9001
100 kPa | 871.7 ± 1 | 875.3 ± 1 | 877.9 ± 0.9 | 884.2 ± 0.9 | 889.7 ± 0.8 | 896.8 ± 0.7 | 904.7 ± 0.7 | 914.9 ± 0.6 | 927.7 ± 0.6
2000 kPa | 873.1 ± 1.1 | 876.7 ± 1 | 879.4 ± 1 | 885.6 ± 0.9 | 891 ± 0.8 | 898.2 ± 0.8 | 906 ± 0.7 | 916.1 ± 0.7 | 928.8 ± 0.6
4000 kPa | 874.7 ± 1.1 | 878.2 ± 1.1 | 880.8 ± 1 | 887.1 ± 1 | 892.5 ± 0.9 | 899.6 ± 0.8 | 907.5 ± 0.8 | 917.4 ± 0.7 | 930.2 ± 0.6
6000 kPa | 876.1 ± 1.2 | 879.7 ± 1.1 | 882.3 ± 1.1 | 888.5 ± 1 | 893.9 ± 0.9 | 900.9 ± 0.9 | 908.8 ± 0.8 | 918.8 ± 0.7 | 931.4 ± 0.7
7900 kPa | 877.6 ± 1.3 | – | – | – | – | – | – | – | –
8000 kPa | – | 881.1 ± 1.2 | 883.7 ± 1.1 | 889.9 ± 1.1 | 895.3 ± 1 | 902.3 ± 0.9 | 910.1 ± 0.8 | 920.1 ± 0.8 | 932.6 ± 0.7
9900 kPa | – | – | – | – | – | – | – | 921.4 ± 0.8 | –
10000 kPa | 879.1 ± 1.3 | 882.7 ± 1.2 | 885.2 ± 1.2 | 891.4 ± 1.1 | 896.8 ± 1 | 903.7 ± 1 | 911.4 ± 0.9 | – | 933.9 ± 0.7
12000 kPa | 880.6 ± 1.4 | 884.1 ± 1.3 | 886.6 ± 1.2 | 892.8 ± 1.1 | 898.1 ± 1.1 | 905 ± 1 | 912.7 ± 0.9 | 922.7 ± 0.8 | 935.1 ± 0.7
13900 kPa | – | 885.4 ± 1.3 | – | – | – | – | – | – | –
14000 kPa | 882 ± 1.4 | – | 887.9 ± 1.3 | 894.1 ± 1.2 | 899.4 ± 1.1 | 906.3 ± 1 | 914 ± 0.9 | 924 ± 0.9 | 936.3 ± 0.8
15900 kPa | 883.2 ± 1.5 | – | 889.2 ± 1.3 | – | 900.7 ± 1.1 | – | – | – | –
16000 kPa | – | 886.4 ± 1.4 | – | 895.4 ± 1.2 | – | 907.7 ± 1.1 | 915.4 ± 1 | 925 ± 0.9 | 937.6 ± 0.8
17900 kPa | – | – | – | 896.7 ± 1.3 | – | – | – | – | 938.6 ± 0.8
18000 kPa | 884.6 ± 1.5 | 888.2 ± 1.4 | 890.6 ± 1.4 | – | 902 ± 1.2 | 908.9 ± 1.1 | 916.5 ± 1 | 926.3 ± 0.9 | –
20000 kPa | 886 ± 1.5 | – | 891.8 ± 1.4 | 898 ± 1.3 | 903.3 ± 1.2 | 910.3 ± 1.1 | 917.7 ± 1 | 927.5 ± 0.9 | 939.8 ± 0.8
20100 kPa | – | 889.6 ± 1.5 | – | – | – | – | – | – | –
